Experimental findings from patent US20240408169A1 (priority 2023, published 2024) are described below.

The target in one test is T1, CyclinE1/CDK2 (Homo sapiens, UniProt P24864).
T1 construct: purchased Eurofins, discovery 14-475
The test can be described thus: Fluorescence Polarization (FP) competitive binding assay, Cyclin E1/Cdk2.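 Also: readings taken after two-hour equilibration at room temperature in HEPES buffer with NaCl, DTT, NP-40 and BSA, IC50 fitted from eight-concentration serial dilution series.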 Particulars: 10 nM Cyclin E1/Cdk2, 2 nM FAM probe; average of 2-3 independent experiments; read-out: Cyclin E FP IC50.

In the next test the test system is OVCAR3 cells. The test can be described thus: MTT proliferation assay, OVCAR3.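 Also: compound given as an 8- or 10-point series, one day after plating, with exposure covering roughly 3-4 cell doublings.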 In kind it is cell-based. Particulars: 5 days compound exposure, 1:3 serial dilution starting at 10 μM.
The next test has as its target T2, CyclinA2/CDK2 (Homo sapiens, UniProt P20248).
T2 construct: purchased CRELUX Protein Services
As to the kind of experiment: Fluorescence Polarization (FP) competitive binding assay, Cyclin A2/Cdk2.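 Also: plates equilibrated two hours at room temperature before polarization reading, IC50 fitted from eight-concentration compound titration curves.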 Particulars: 8 nM Cyclin A2/Cdk2, 2 nM FAM probe; average of 2-3 independent experiments; read-out: Cyclin A FP IC50.

The next test relates to NCI-H1048 cells. As to the kind of experiment: MTT proliferation assay, NCI-H1048.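 Also: Dose-response in 96-well plates over 8 or 10 concentration points, with exposure spanning 3-4 cell doublings.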 It counts as cell-based. Particulars: 5 days compound exposure, 1:3 serial dilution starting at 10 μM.
The target of the next test is T3, CyclinB1/CDK1 (Homo sapiens, UniProt P14635).
T3 construct: purchased Eurofins, discovery 14-450
As to the kind of experiment: Fluorescence Polarization (FP) competitive binding assay, Cyclin B1/Cdk1.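 Also: fluorescence polarization read after equilibration at room temperature, with IC50 taken from serially diluted dose-response curves.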 Particulars: 10 nM Cyclin B1/Cdk1, 2 nM FAM probe; average of 2-3 independent experiments; read-out: Cyclin B FP IC50.

*1 amine or outer side, *2 acyl side, *3 side chain or, on linkers, in order; H or OH if unused. Where a SMILES comes first, the peptide text is derived from it. Bridges are numbered along the chain shown (N, C = ends). [ ]: non-standard residue; d: D form. The star is where a group is joined. X166 = CN([C@@H](Cc1cc(F)ccc1C1=CC2COCC(C1)N2)C(=O)[*:2])[*:1]; X170 = CN([C@@H](Cc1cc(Cl)ccc1-c1ccc2nonc2c1)C(=O)[*:2])[*:1]; X177 = CN([C@@H](Cc1cc(F)ccc1C1=CC2CCC(C1)N2)C(=O)[*:2])[*:1]; X189 = CN([C@@H](Cc1cc(Cl)ccc1-c1ccc2scnc2c1)C(=O)[*:2])[*:1]; X193 = CN([C@@H](Cc1cc(Cl)ccc1-c1cnc2nonc2c1)C(=O)[*:2])[*:1]; NMehhhLys(Me) = CN([C@@H](CCCCCCCN(C)[*:3])C(=O)[*:2])[*:1]; X207 = CN([C@@H](Cc1cc(F)ccc1-c1cn(C)cn1)C(=O)[*:2])[*:1]; X44 = Cc1nnc(-c2ccc(Cl)cc2C[C@@H](C(=O)[*:2])N(C)[*:1])o1; Cyclobutanecarbonyl(1-CF3) = O=C(C1(C(F)(F)F)CCC1)*; cBuCO(3,3-F2-1-CF3) = O=C(C1(C(F)(F)F)CC(F)(F)C1)*; Pro(trans-4-F) = O=C(O)[C@@H]1C[C@@H](F)CN1; Gly(cPr) = N[C@H](C(=O)O)C1CC1

For `Cc1nnc(-c2ccc(Cl)cc2C[C@H]2C(=O)N(C)CCCCCCC[C@H](N(C)C(=O)[C@@H](NC(=O)[C@@H]3C[C@@H](F)CN3C(=O)C3(C(F)(F)F)CC(F)(F)C3)C3CC3)C(=O)N[C@@H](CC(C)C)C(=O)N2C)o1` [Example 162] ({cBuCO(3,3-F2-1-CF3)}-[Pro(trans-4-F)][Gly(cPr)][NMehhhLys(Me)]L[X44]; lactam 3-C), the IC50 on CyclinE1/CDK2 was found to be 220 nM; on CyclinA2/CDK2 it was 20 nM; at CyclinB1/CDK1 it was 20 nM. Moreover, the GI50 in the test on OVCAR3 cells and in the test on NCI-H1048 cells was 10 nM in each case.

Regarding `Cc1nnc(-c2ccc(Cl)cc2C[C@H]2C(=O)N(C)CCCCCCC[C@H](N(C)C(=O)[C@@H](NC(=O)[C@@H]3C[C@@H](F)CN3C(=O)C3(C(F)(F)F)CCC3)C3CC3)C(=O)N[C@@H](CC(C)C)C(=O)N2C)o1` [Example 163] ({Cyclobutanecarbonyl(1-CF3)}-[Pro(trans-4-F)][Gly(cPr)][NMehhhLys(Me)]L[X44]; lactam 3-C), the values for the IC50 on CyclinE1/CDK2, on CyclinA2/CDK2 and on CyclinB1/CDK1 were 100 nM, 20 nM and 20 nM, respectively. In addition, the concentration for 50% growth inhibition (GI50) in the test on OVCAR3 cells and in the test with NCI-H1048 cells was 10 nM in each case.

In the case of `CC(C)C[C@@H]1NC(=O)[C@@H](N(C)C(=O)[C@@H](NC(=O)[C@@H]2C[C@@H](F)CN2C(=O)C2(C(F)(F)F)CC(F)(F)C2)C2CC2)CCCCCCCN(C)C(=O)[C@H](Cc2cc(F)ccc2-c2cn(C)cn2)N(C)C1=O` [Example 164] ({cBuCO(3,3-F2-1-CF3)}-[Pro(trans-4-F)][Gly(cPr)][NMehhhLys(Me)]L[X207]; lactam 3-C), the results for the IC50 at CyclinE1/CDK2, on CyclinA2/CDK2 and at CyclinB1/CDK1 were 930 nM, 70 nM and 20 nM, respectively. The GI50 in the test on OVCAR3 cells and in the test on NCI-H1048 cells was 30 nM in each case.

As to `CC(C)C[C@@H]1NC(=O)[C@@H](N(C)C(=O)[C@@H](NC(=O)[C@@H]2C[C@@H](F)CN2C(=O)C2(C(F)(F)F)CC(F)(F)C2)C2CC2)CCCCCCCN(C)C(=O)[C@H](Cc2cc(F)ccc2C2=CC3CCC(C2)N3)N(C)C1=O` (stereo partly drawn) [Example 165, (2S,4R)—N-((1S)-2-(((3S,6S,9S)-3-(2-(8-azabicyclo[3.2.1]oct-2-en-3-yl)-5-fluorobenzyl)-6-isobutyl-1,4-dimethyl-2,5,8-trioxo-1,4,7-triazacyclohexadecan-9-yl)(methyl)amino)-1-cyclopropyl-2-oxoethyl)-1-(3,3-difluoro-1-(trifluoromethyl)cyclobutane-1-carbonyl)-4-fluoropyrrolidine-2-carboxamide] ({cBuCO(3,3-F2-1-CF3)}-[Pro(trans-4-F)][Gly(cPr)][NMehhhLys(Me)]L[X177]; lactam 3-C), the IC50 turned out to be 5470 nM on CyclinE1/CDK2, 110 nM on CyclinA2/CDK2 and 20 nM on CyclinB1/CDK1. For the same compound, the GI50 came to 1670 nM in the test on OVCAR3 cells and 340 nM in the test on NCI-H1048 cells.

Take `CC(C)C[C@@H]1NC(=O)[C@@H](N(C)C(=O)[C@@H](NC(=O)[C@@H]2C[C@@H](F)CN2C(=O)C2(C(F)(F)F)CC(F)(F)C2)C2CC2)CCCCCCCN(C)C(=O)[C@H](Cc2cc(F)ccc2C2=CC3COCC(C2)N3)N(C)C1=O` (stereo partly drawn) [Example 166] ({cBuCO(3,3-F2-1-CF3)}-[Pro(trans-4-F)][Gly(cPr)][NMehhhLys(Me)]L[X166]; lactam 3-C): the results for the IC50 on CyclinE1/CDK2, at CyclinA2/CDK2 and at CyclinB1/CDK1 were 2300 nM, 60 nM and 20 nM, respectively. The GI50 came to 100 nM in the test with OVCAR3 cells and 40 nM in the test with NCI-H1048 cells.

Consider `CC(C)C[C@@H]1NC(=O)[C@@H](N(C)C(=O)[C@@H](NC(=O)[C@@H]2C[C@@H](F)CN2C(=O)C2(C(F)(F)F)CC(F)(F)C2)C2CC2)CCCCCCCN(C)C(=O)[C@H](Cc2cc(Cl)ccc2-c2ccc3scnc3c2)N(C)C1=O` [Example 169] ({cBuCO(3,3-F2-1-CF3)}-[Pro(trans-4-F)][Gly(cPr)][NMehhhLys(Me)]L[X189]; lactam 3-C), for which the values for the IC50 on CyclinE1/CDK2, at CyclinA2/CDK2 and on CyclinB1/CDK1 were 1090 nM, 30 nM and 20 nM, respectively. Further, the GI50 in the test on OVCAR3 cells worked out at 30 nM; with NCI-H1048 cells, 20 nM.

`CC(C)C[C@@H]1NC(=O)[C@@H](N(C)C(=O)[C@@H](NC(=O)[C@@H]2C[C@@H](F)CN2C(=O)C2(C(F)(F)F)CC(F)(F)C2)C2CC2)CCCCCCCN(C)C(=O)[C@H](Cc2cc(Cl)ccc2-c2ccc3nonc3c2)N(C)C1=O` [Example 170] ({cBuCO(3,3-F2-1-CF3)}-[Pro(trans-4-F)][Gly(cPr)][NMehhhLys(Me)]L[X170]; lactam 3-C): the figures for the IC50 on CyclinE1/CDK2, at CyclinA2/CDK2 and at CyclinB1/CDK1 were 2220 nM, 50 nM and 20 nM, respectively. The GI50 is 200 nM in the test on OVCAR3 cells and 130 nM with NCI-H1048 cells.

Consider `CC(C)C[C@@H]1NC(=O)[C@@H](N(C)C(=O)[C@@H](NC(=O)[C@@H]2C[C@@H](F)CN2C(=O)C2(C(F)(F)F)CC(F)(F)C2)C2CC2)CCCCCCCN(C)C(=O)[C@H](Cc2cc(Cl)ccc2-c2cnc3nonc3c2)N(C)C1=O` [Example 171] ({cBuCO(3,3-F2-1-CF3)}-[Pro(trans-4-F)][Gly(cPr)][NMehhhLys(Me)]L[X193]; lactam 3-C), for which the figures for the IC50 at CyclinE1/CDK2, on CyclinA2/CDK2 and on CyclinB1/CDK1 were 4210 nM, 80 nM and 20 nM, respectively. Moreover, the results for the GI50 in the test with OVCAR3 cells and with NCI-H1048 cells were 210 nM and 150 nM, respectively.
